Results from PubChem BioAssay (NCI).
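48-hour exposure; five concentrations; linearly interpolated endpoints. TGI denotes the concentration required for complete inhibition of growth.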

Columns and labels:
Assay in all cases: NCI-60 cell line screen, 48 h
[1] = tested on: 786-0 renal
[2] = tested on: A498 renal
[3] = tested on: ACHN renal
[4] = tested on: COLO 205 colon
[5] = tested on: KM12 colon
[6] = tested on: M14 melanoma
[7] = tested on: MALME-3M melanoma
[8] = tested on: NCI-H23 lung
[9] = tested on: PC-3 prostate
[10] = tested on: SF-268 CNS
[11] = tested on: SK-MEL-2 melanoma
[12] = tested on: SK-OV-3 ovarian
[13] = tested on: SN12C renal
[14] = tested on: SR leukemia
[15] = tested on: SF-539 CNS
[16] = tested on: UACC-257 melanoma
[17] = tested on: BT-549 breast
[18] = tested on: T-47D breast

SMILES	TGI [1]	TGI [2]	TGI [3]	TGI [4]	TGI [5]	TGI [6]	TGI [7]	TGI [8]	TGI [9]	TGI [10]	TGI [11]	TGI [12]	TGI [13]	TGI [14]	TGI [15]	TGI [16]	TGI [17]	TGI [18]
COc1ccc(/C=C2\N=C(SC)N(CN3CCCCC3)C2=O)cc1	> 100 µM	> 100 µM	> 100 µM	> 100 µM	> 100 µM	> 100 µM	> 100 µM	> 100 µM	> 100 µM	> 100 µM	> 100 µM	> 100 µM	> 100 µM	> 100 µM	–	–	–	–
O=C(O)CCc1cccc2c1oc1c(CCC(=O)O)cccc12	> 100 µM	> 100 µM	> 100 µM	> 100 µM	> 100 µM	> 100 µM	> 100 µM	> 100 µM	–	> 100 µM	> 100 µM	> 100 µM	> 100 µM	> 100 µM	> 100 µM	> 100 µM	–	–
CC(C)C(Sc1nc(-c2ccccc2)c(-c2ccccc2)[nH]1)C(=O)NN (centres undefined)	> 100 µM	> 100 µM	> 100 µM	> 100 µM	> 100 µM	> 100 µM	> 100 µM	> 100 µM	–	> 100 µM	> 100 µM	> 100 µM	> 100 µM	–	> 100 µM	> 100 µM	–	–
COc1c(Br)cc(/C=C(\C#N)c2cccnc2)cc1Br	> 100 µM	–	> 100 µM	> 100 µM	> 100 µM	> 100 µM	> 100 µM	> 100 µM	> 100 µM	> 100 µM	> 100 µM	> 100 µM	> 100 µM	> 100 µM	> 100 µM	> 100 µM	> 100 µM	–
CC(C)(C)OC(=O)NC(CCC(=O)OCc1ccccc1)C(=O)NCCCO (centres undefined)	> 100 µM	> 100 µM	> 100 µM	–	> 100 µM	> 100 µM	> 100 µM	> 100 µM	–	> 100 µM	> 100 µM	> 100 µM	> 100 µM	> 100 µM	> 100 µM	> 100 µM	> 100 µM	> 100 µM
CC(=O)N(C(C)=O)n1c(-c2ccccc2)n[nH]c1=O	> 100 µM	–	> 100 µM	> 100 µM	> 100 µM	> 100 µM	–	> 100 µM	> 100 µM	> 100 µM	> 100 µM	> 100 µM	> 100 µM	> 100 µM	> 100 µM	> 100 µM	> 100 µM	–
COc1cc2c(cc1OC)[C@H]1C(COC(=O)c3ccccc3)CSC(=Nc3ccccc3)N1CC2 (some centres undefined)	> 100 µM	> 100 µM	> 100 µM	> 100 µM	> 100 µM	> 100 µM	> 100 µM	> 100 µM	–	> 100 µM	> 100 µM	> 100 µM	> 100 µM	> 100 µM	> 100 µM	> 100 µM	–	–
CCOC(=O)/C(=C\c1cccs1)P(=O)(OCC)OCC	47.2 µM	–	32.3 µM	30.4 µM	31.4 µM	33.2 µM	52.6 µM	35.2 µM	–	60.4 µM	38.1 µM	> 100 µM	45.9 µM	> 100 µM	45.4 µM	61 µM	–	–
